The target in the experiment is T1, PDGF-R (Mus musculus, UniProt P05622).
T1 construct: endogenous in cells; host or cells: NIH 3T3 cells (lysate, immunoprecipitate)
Nature of the experiment: Inhibition of PDGF-R cell-free autophosphorylation. It counts as biochemical. Conditions: lysate from NIH 3T3 cells, stimulated with 10 ng/ml PDGF, [γ-^32 P]ATP, 4° C., immunoprecipitation. As for the experimental part:
In order to test the present compounds for inhibition, the following procedure using PDGF stimulation is used. "IC50," as used below refers to the concentration of inhibitor ([…]) at which the rate of autophosphorylation is halved, compared with media containing no inhibitor.
Inhibition of PDGF-R Autophosphorylation
Lysate from NIH 3T3 cells was diluted one-third in Triton-free buffer and stimulated with 10 ng/ml PDGF for 30 minutes at 4° C. The equivalent of 1/15 of a 175. cm^2 plate of lysate was used per sample. The stimulated lysate was then immunoprecipitated with rabbit polyclonal anti-PDGF-receptor antibodies raised against a synthetic peptide from the COOH-terminal region (amino acids 1094-1106) or the human PDGF-receptor β-subunit and added to increasing concentrations of test compound of the present invention. After 10 minutes at 4° C., 10 μCi of [γ-^32 P]ATP were added and further incubated for 10 minutes at 4° C. Samples were separated by SDS-PAGE on 6% gels.
The following tables show examples of representative compounds of this invention and their test results as determined by the above inhibition of PDGF-R cell-free autophosphorylation procedure.

What is called IC50 is the concentration at which inhibition is half-maximal. Read a high IC50 as lower potency.

The structures appear in SMILES notation. A value given as a limit tells only on which side of the number the result lay.

T1 sequence (P05622 32-1098): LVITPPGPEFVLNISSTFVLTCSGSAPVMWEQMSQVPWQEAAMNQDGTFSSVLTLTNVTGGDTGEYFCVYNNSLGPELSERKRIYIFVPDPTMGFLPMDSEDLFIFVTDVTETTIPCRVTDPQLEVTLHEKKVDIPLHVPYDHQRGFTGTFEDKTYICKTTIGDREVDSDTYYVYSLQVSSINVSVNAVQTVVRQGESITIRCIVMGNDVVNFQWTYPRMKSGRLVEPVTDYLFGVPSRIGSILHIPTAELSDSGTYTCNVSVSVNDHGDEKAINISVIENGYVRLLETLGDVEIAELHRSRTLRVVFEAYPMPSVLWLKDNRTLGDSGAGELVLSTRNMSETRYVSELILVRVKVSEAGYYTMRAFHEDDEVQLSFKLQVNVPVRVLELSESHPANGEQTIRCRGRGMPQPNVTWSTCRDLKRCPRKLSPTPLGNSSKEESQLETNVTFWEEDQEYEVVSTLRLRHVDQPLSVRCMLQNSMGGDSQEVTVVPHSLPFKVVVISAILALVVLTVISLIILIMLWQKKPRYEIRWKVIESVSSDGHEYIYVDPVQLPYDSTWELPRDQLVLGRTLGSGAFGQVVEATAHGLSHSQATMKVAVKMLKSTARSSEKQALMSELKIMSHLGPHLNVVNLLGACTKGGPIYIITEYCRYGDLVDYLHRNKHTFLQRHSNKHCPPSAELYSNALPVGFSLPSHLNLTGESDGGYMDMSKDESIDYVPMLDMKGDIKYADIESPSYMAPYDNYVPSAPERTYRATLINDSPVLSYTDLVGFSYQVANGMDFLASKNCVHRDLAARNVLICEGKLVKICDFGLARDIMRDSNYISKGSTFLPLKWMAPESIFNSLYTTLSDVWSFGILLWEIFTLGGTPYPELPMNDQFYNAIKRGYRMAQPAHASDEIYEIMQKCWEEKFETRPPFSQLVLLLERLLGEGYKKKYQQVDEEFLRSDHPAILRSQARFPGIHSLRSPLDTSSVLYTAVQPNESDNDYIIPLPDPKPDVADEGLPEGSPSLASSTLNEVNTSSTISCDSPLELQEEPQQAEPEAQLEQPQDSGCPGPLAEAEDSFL

`Clc1ccc(-c2cnc3cc4cn[nH]c4cc3n2)s1` had an IC50 of 2000 to 10000 nM.
Take `Cn1cc2cc3ncc(-c4ccc(Cl)s4)nc3cc2n1`: the IC50 amounted to 300 nM.
The value for `COc1ccc(-c2cnc3cc4cn[nH]c4cc3n2)cc1F` was below 20 nM; that for `COc1ccc(-c2cnc3cc4cnn(C)c4cc3n2)cc1F` was below 2000 nM; that for `COc1ccc(-c2cnc3cc4cn(C)nc4cc3n2)cc1F` was below 20 nM.

(Values after patent US5476851A, “Pyrazolo[3,4-g]quinoxaline compounds which inhibit PDGF receptor protein tyrosine kinase” (Rhone-Poulenc Rorer Pharmaceuticals, Inc., priority 1994, dated 1995).)
